Data as given in patent US11371013B2, “Culture medium composition and method of culturing cell or tissue using thereof” (Nissan Chemical Industries, Ltd., priority 2012, dated 2022).

Assays:
[1] = test system: HeLa cells; test: Cell proliferation test using various anticancer drugs; format: cell-based, human; conditions: DAG 0.030% medium; for cell density: HeLa cells 5 days later
Protocol: This aqueous solution was sterilized at 121° C. for 20 min in an autoclave. […] The anticancer drug used was Adriamycin (manufactured by WAKO), Paclitaxel (manufactured by WAKO) or Mitomycin C (manufactured by WAKO).
Successively, this plate was cultured by being stood still in a CO2 incubator (37° C., 5% CO2) for 7 days. After culturing for 3, 5, 7 days, to the culture medium was added a WST-8 solution (manufactured by DOJINDO Laboratories, 20 μL), and the mixture was incubated at 37° C. for 100 min. The absorbance at 450 nm was measured by an absorbance spectrometer (manufactured by Molecular Devices, SPECTRA MAX 190), and the number of viable cells was measured by subtracting the absorbance of the medium alone. The culture medium containing the cells after 5 days of culture was stirred with a pipette and the obtained stirred solution (20 μL) was mixed with Trypan Blue stain 0.4% (manufactured by Invitrogen, 20 μL) and the cell density was measured under a microscope.

[2] = test system: A431 cells; test: Effect of Gefitinib, Elrotinib on proliferation of A431 cells stimulated with human HB-EGF; format: cell-based; conditions: A431 cells stimulated with human HB-EGF, 0.015% (w/v) deacylated gellan gum medium, low adhesion plate
Protocol: (§1) Each plate was cultured by being stood still in a CO2 incubator (37° C., 5% CO2). […] To the culture medium on days 4, 6 and 8 was added an ATP reagent (150 μL) (CellTiter-Glo (registered trade mark) Luminescent Cell Viability Assay, manufactured by Promega) to give a suspension, which was stood for about 10 min at room temperature, and the luminescence intensity (RLU value) was measured by FlexStation3 (manufactured by Molecular Devices), and the number of viable cells was measured by subtracting the luminescence value of the medium alone.

[3] = test system: A549 cells; test: Effect of Gefitinib on cell proliferation of A549 cell stimulated with human HB-EGF; format: cell-based; conditions: DAG 0.015%, day 6
Protocol: (§2) This aqueous solution was sterilized at 121° C. for 20 min in an autoclave.
as §1, with “day” for “days 4,”, “6” for “6 and 8”

[4] = test system: HeLa cells; test: Comparison with single layer culture method in cell proliferation test using anticancer drug; format: cell-based, human; conditions: day 4
Protocol: as §2
Each plate was cultured by being stood still in a CO2 incubator (37° C., 5% CO2). […] The anticancer drug used was Adriamycin (manufactured by WAKO), Paclitaxel (manufactured by WAKO) or Mitomycin C (manufactured by WAKO). To the culture medium on day 4 was added an ATP reagent (150 μL) (CellTiter-Glo (registered trade mark) Luminescent Cell Viability Assay, manufactured by Promega) to give a suspension, which was stood for about 10 min at room temperature, and the luminescence intensity (RLU value) was measured by FlexStation3 (manufactured by Molecular Devices), and the number of viable cells was measured by subtracting the luminescence value of the medium alone. For WST-8 measurement, a WST-8 solution (manufactured by DOJINDO Laboratories, 15 μL) was added, the mixture was incubated at 37° C. for 100 min, the absorbance at 450 nm was measured by an absorbance spectrometer (manufactured by Molecular Devices, SPECTRA MAX 190), and the number of viable cells was measured by subtracting the absorbance of the medium alone.

[5] = test system: A549 cells; test: A549 cell proliferation test using Trametinib and MK-2206; format: cell-based, human; conditions: drug from day 1 for 5 days
Protocol: This aqueous solution was sterilized at 121° C. for 20 min is in an autoclave.
(§3) Each plate was cultured by being stood still in a CO2 incubator (37° C., 5% CO2). […] The anticancer drugs used were Trametinib (manufactured by Santa Cruz, MEK inhibitor) and MK-2206 (manufactured by Santa Cruz, Akt inhibitor). To the culture medium on day 6 was added an ATP reagent (150 μL) (CellTiter-Glo (registered trade mark) Luminescent Cell Viability Assay, manufactured by Promega) to give a suspension, which was stood for about 10 min at room temperature, and the luminescence intensity (RLU value) was measured by FlexStation3 (manufactured by Molecular Devices), and the number of viable cells was measured by subtracting the luminescence value of the medium alone.

[6] = test system: HeLa cells; test: HeLa cell proliferation test using Trametinib and MK-2206; format: cell-based, human; conditions: drug from day 1 for 5 days
Protocol: as §2, §3

[7] = 0.005 μM, deacylated gellan gum addition group (0.015%)
[8] = 0.005 μM, single layer culture group
[9] = 0.05 μM, deacylated gellan gum addition group (0.015%)
[10] = 0.05 μM, single layer culture group
[11] = 0.5 μM, deacylated gellan gum addition group (0.015%)
[12] = 0.5 μM, single layer culture group
[13] = 0.001 μM, single layer culture group
[14] = 0.003 μM, deacylated gellan gum addition group (0.015%)
[15] = 0.003 μM, single layer culture group
[16] = 0.01 μM, deacylated gellan gum addition group (0.015%)
[17] = 0.01 μM, single layer culture group

COc1cccc2c1C(=O)c1c(O)c3c(c(O)c1C2=O)C[C@@](O)(C(=O)CO)C[C@@H]3O[C@H]1C[C@H](N)[C@H](O)[C@H](C)O1 [Adriamycin]
cell density ([1]; 1 μM): 0.6 10^4 cells/mL

C#Cc1cccc(Nc2ncnc3cc(OCCOC)c(OCCOC)cc23)c1 [Elrotinib]
% Control value of the RLU value (ATP measurement, luminescence intensity) ([2]; drug 0.1 μM, day 4): 88% | % Control value of the RLU value (ATP measurement, luminescence intensity) ([2]; drug 0.1 μM, day 8): 56% | % Control value of the RLU value (ATP measurement, luminescence intensity) ([2]; drug 0.3 μM, day 4): 89% | % Control value of the RLU value (ATP measurement, luminescence intensity) ([2]; drug 0.3 μM, day 8): 27% | % Control value of the RLU value (ATP measurement, luminescence intensity) ([2]; drug 1 μM, day 4): 21% | % Control value of the RLU value (ATP measurement, luminescence intensity) ([2]; drug 1 μM, day 8): 4% | % Control value of the RLU value (ATP measurement, luminescence intensity) ([2]; drug 3 μM, day 4): 4% | % Control value of the RLU value (ATP measurement, luminescence intensity) ([2]; drug 3 μM, day 8): 0%

COc1cc2ncnc(Nc3ccc(F)c(Cl)c3)c2cc1OCCCN1CCOCC1 [Gefitinib]
% Control of RLU value (ATP) ([3]; 0.1 μM, HB-EGF 100 ng/ml): 91 % Control | % Control of RLU value (ATP) ([3]; 0.1 μM, HB-EGF no addition): 89 % Control | % Control of RLU value (ATP) ([3]; 0.3 μM, HB-EGF 100 ng/ml): 74 % Control | % Control of RLU value (ATP) ([3]; 0.3 μM, HB-EGF no addition): 84 % Control | % Control of RLU value (ATP) ([3]; 1 μM, HB-EGF 100 ng/ml): 59 % Control | % Control of RLU value (ATP) ([3]; 1 μM, HB-EGF no addition): 77 % Control | % Control of RLU value (ATP) ([3]; 3 μM, HB-EGF 100 ng/ml): 53 % Control | % Control of RLU value (ATP) ([3]; 3 μM, HB-EGF no addition): 69 % Control

CO[C@@]12[C@H](COC(N)=O)C3=C(C(=O)C(C)=C(N)C3=O)N1C[C@@H]1N[C@@H]12 [Mitomycin C]
% Control of RLU value (ATP) [4, 7]: 83 % Control | % Control of absorbance at 450 nm (WST-8) [4, 7]: 94 % Control | % Control of RLU value (ATP) [4, 8]: 99 % Control | % Control of absorbance at 450 nm (WST-8) [4, 8]: 101 % Control | % Control of RLU value (ATP) [4, 9]: 48 % Control | % Control of absorbance at 450 nm (WST-8) [4, 9]: 37 % Control | % Control of RLU value (ATP) [4, 10]: 89 % Control | % Control of absorbance at 450 nm (WST-8) [4, 10]: 83 % Control | % Control of RLU value (ATP) [4, 11]: 29 % Control | % Control of absorbance at 450 nm (WST-8) [4, 11]: 12 % Control | % Control of RLU value (ATP) [4, 12]: 86 % Control | % Control of absorbance at 450 nm (WST-8) [4, 12]: 71 % Control | cell density ([1]; 0.01 μM): 1.0 10^4 cells/mL | cell number (absorbance at 450 nm, WST-8) ([1]; 0.01 μM, culture day 3): 0.089 | cell number (absorbance at 450 nm, WST-8) ([1]; 0.01 μM, culture day 5): 0.016 | cell number (absorbance at 450 nm, WST-8) ([1]; 0.01 μM, culture day 7): <0 | cell density ([1]; 0.1 μM): 0.4 10^4 cells/mL | cell number (absorbance at 450 nm, WST-8) ([1]; 0.1 μM, culture day 3): 0.032 | cell number (absorbance at 450 nm, WST-8) ([1]; 0.1 μM, culture day 5): <0 | cell number (absorbance at 450 nm, WST-8) ([1]; 0.1 μM, culture day 7): <0 | cell density ([1]; 1 μM): 0.1 10^4 cells/mL | cell number (absorbance at 450 nm, WST-8) ([1]; 1 μM, culture day 3): <0 | cell number (absorbance at 450 nm, WST-8) ([1]; 1 μM, culture day 5): <0 | cell number (absorbance at 450 nm, WST-8) ([1]; 1 μM, culture day 7): <0

CC(=O)O[C@H]1C(=O)[C@@]2(C)[C@H]([C@H](OC(=O)c3ccccc3)[C@]3(O)C[C@H](OC(=O)[C@H](O)[C@@H](NC(=O)c4ccccc4)c4ccccc4)C(C)=C1C3(C)C)[C@]1(OC(C)=O)CO[C@@H]1C[C@@H]2O [Paclitaxel]
% Control of RLU value (ATP) ([5]; 0.001 μM, deacylated gellan gum addition group (0.015%)): 93 % Control | % Control of RLU value (ATP) [5, 13]: 81 % Control | % Control of RLU value (ATP) [5, 14]: 52 % Control | % Control of RLU value (ATP) [5, 15]: 31 % Control | % Control of RLU value (ATP) [5, 16]: 32 % Control | % Control of RLU value (ATP) [5, 17]: 16 % Control | cell density ([1]; 0.1 μM): 0.9 10^4 cells/mL | cell density ([1]; 1 μM): 0.2 10^4 cells/mL | % Control of RLU value (ATP) [6, 13]: 89 % Control | % Control of RLU value (ATP) [6, 14]: 46 % Control | % Control of RLU value (ATP) [6, 15]: 15 % Control | % Control of RLU value (ATP) [6, 16]: 5 % Control | % Control of RLU value (ATP) [6, 17]: 2 % Control
